Experimental data published in ChEMBL document CHEMBL5726774, “Triterpenoids with HIV maturation inhibitory activity” (2019).

Experiments:
[1] = (§1) HIV Cell Culture Assay: MT-2 cells and 293T cells were obtained from the NIH AIDS Research and Reference Reagent Program. MT-2 cells were propagated in RPMI 1640 media supplemented with 10% heat-inactivated fetal bovine serum, […]. The 293T cells were propagated in DMEM media supplemented with 10% heat-inactivated fetal bovine serum (FBS), 100 units/mL penicillin G and 100 μg/mL streptomycin. The proviral DNA clone of NL4-3 was obtained from the NIH AIDS Research and Reference Reagent Program. A recombinant NL4-3 virus, in which a section of the nef gene from NL4-3 was replaced with the Renilla luciferase gene, was used as a reference virus. In addition, residue Gag P373 was converted to P373S. Briefly, the recombinant virus was prepared by transfection of the altered proviral clone of NL4-3. Transfections were performed in 293T cells using LipofectAMINE PLUS from Invitrogen (Carlsbad, Calif.), according to manufacturer's instruction. The virus was titered in MT-2 cells using luciferase enzyme activity as a marker. Luciferase was quantitated using the Dual Luciferase kit from Promega (Madison, Wis.), with modifications to the manufacturer's protocol. The diluted Passive Lysis solution was pre-mixed with the re-suspended Luciferase Assay Reagent and the re-suspended Stop & Glo Substrate (2:1:1 ratio). Fifty (50) μL of the mixture was added to each aspirated well on assay plates and luciferase activity was measured immediately on a Wallac TriLux (Perkin-Elmer). Antiviral activities of inhibitors toward the recombinant virus were quantified by measuring luciferase activity in cells infected for 4-5 days with NLRluc recombinants in the presence serial dilutions of the inhibitor.; type: cell-based
[2] = as §1; type: cell-based; remark: listed apart in the source

Compound | EC50 [1] [nM] | EC50 [2] [nM]
C=C(C)[C@@H]1CC[C@]2(NCCC(O)(C3CC3)C3CC3)CC[C@]3(C)[C@H](CC[C@@H]4[C@@]5(C)CC=C(C6=CC[C@](CF)(C(=O)OCc7ccccc7)CC6)C(C)(C)[C@@H]5CC[C@]43C)[C@@H]12 | < 50 | > 50
C=C(C)[C@@H]1CC[C@]2(NCCN3CC(C)S(=O)(=O)C(C)C3)CC[C@]3(C)[C@H](CC[C@@H]4[C@@]5(C)CC=C(C6=CC[C@](CF)(OC=O)CC6)C(C)(C)[C@@H]5CC[C@]43C)[C@@H]12 (some centres not stated) | < 50 | > 50
C=C(C)[C@@H]1CC[C@]2(NC(CN3CCS(=O)(=O)CC3)C(F)(F)F)CC[C@]3(C)[C@H](CC[C@@H]4[C@@]5(C)CC=C(C6=CC[C@](CF)(C(=O)O)CC6)C(C)(C)[C@@H]5CC[C@]43C)[C@@H]12 (some centres not stated) | > 50 | > 50
C=C(C)[C@@H]1CC[C@]2(NCC[C@]3(O)CC[C@@H](S(C)(=O)=O)CC3)CC[C@]3(C)[C@H](CC[C@@H]4[C@@]5(C)CC=C(C6=CC[C@@](CF)(C(=O)O)CC6)C(C)(C)[C@@H]5CC[C@]43C)[C@@H]12 | < 50 | > 50
C=C(C)[C@@H]1CC[C@]2(NCC[C@]3(O)CC[C@H](S(C)(=O)=O)CC3)CC[C@]3(C)[C@H](CC[C@@H]4[C@@]5(C)CC=C(C6=CC[C@](CF)(C(=O)O)CC6)C(C)(C)[C@@H]5CC[C@]43C)[C@@H]12 | < 50 | > 50
CC(C)[C@@H]1CC[C@]2(NCCN3CCS(=O)(=O)CC3)CC[C@]3(C)[C@H](CC[C@@H]4[C@@]5(C)CC=C(C6CCC(CF)(C(=O)O)CC6)C(C)(C)[C@@H]5CC[C@]43C)[C@@H]12 (some centres not stated) | < 50 | > 50
C=C(C)[C@@H]1CC[C@]2(NCCN3CCS(=O)(=O)CC3)CC[C@]3(C)[C@H](CC[C@@H]4[C@@]5(C)CC=C(C6=CC[C@](CF)(OC=O)CC6)C(C)(C)[C@@H]5CC[C@]43C)[C@@H]12 | 2 | 780
C=C(C)[C@@H]1CC[C@]2(NCCN3CCS(=O)(=O)CC(C)C3)CC[C@]3(C)[C@H](CC[C@@H]4[C@@]5(C)CC=C(C6=CC[C@@](CF)(OC=O)CC6)C(C)(C)[C@@H]5CC[C@]43C)[C@@H]12 (some centres not stated) | < 50 | > 50
C=C(C)[C@@H]1CC[C@]2(NCCN3CCS(=O)(=O)CC3)CC[C@]3(C)[C@H](CC[C@@H]4[C@@]5(C)CC=C(C6=CCC(C)(OC=O)CC6)C(C)(C)[C@@H]5CC[C@]43C)[C@@H]12 (some centres not stated) | 2 | 
C=C(C)[C@@H]1CC[C@]2(NCCC3(O)COC3)CC[C@]3(C)[C@H](CC[C@@H]4[C@@]5(C)CC=C(C6=CC[C@@](CF)(C(=O)O)CC6)C(C)(C)[C@@H]5CC[C@]43C)[C@@H]12 | < 50 | > 50
C=C(C)[C@@H]1CC[C@]2(NCCN3CC(C)S(=O)(=O)C(C)C3)CC[C@]3(C)[C@H](CC[C@@H]4[C@@]5(C)CC=C(C6=CC[C@@](CF)(OC=O)CC6)C(C)(C)[C@@H]5CC[C@]43C)[C@@H]12 (some centres not stated) | < 50 | > 50
C=C(C)[C@@H]1CC[C@]2(NCCC3(O)COC3)CC[C@]3(C)[C@H](CC[C@@H]4[C@@]5(C)CC=C(C6=CC[C@](CF)(C(=O)O)CC6)C(C)(C)[C@@H]5CC[C@]43C)[C@@H]12 | < 50 | > 50
C=C(C)[C@@H]1CC[C@]2(NCCN3CCS(=O)(=O)CC3)CC[C@]3(C)[C@H](CC[C@@H]4[C@@]5(C)CC=C(C6=CCC(CF)(OC=O)CC6)C(C)(C)[C@@H]5CC[C@]43C)[C@@H]12 (some centres not stated) | 2 | 210
C=C(C)[C@@H]1CC[C@]2(NCCN3CCS(=O)(=O)CC3)CC[C@]3(C)[C@H](CC[C@@H]4[C@@]5(C)CC=C(C6=CC[C@@](CF)(OC=O)CC6)C(C)(C)[C@@H]5CC[C@]43C)[C@@H]12 | 3 | 170
C=C(C)[C@@H]1CC[C@]2(NCCN3CCS(=O)(=O)CC3C(=O)OCC)CC[C@]3(C)[C@H](CC[C@@H]4[C@@]5(C)CC=C(C6=CC[C@@](CF)(C(=O)O)CC6)C(C)(C)[C@@H]5CC[C@]43C)[C@@H]12 (some centres not stated) | < 50 | < 50
C=C(C)[C@@H]1CC[C@]2(NCCN3CCC(S(C)(=O)=O)CC3)CC[C@]3(C)[C@H](CC[C@@H]4[C@@]5(C)CC=C(C6=CCC(F)(OC=O)CC6)C(C)(C)[C@@H]5CC[C@]43C)[C@@H]12 (some centres not stated) | 4 | 
C=C(C)[C@@H]1CC[C@]2(NCCN3CCS(=O)(=O)CC(C)C3)CC[C@]3(C)[C@H](CC[C@@H]4[C@@]5(C)CC=C(C6=CC[C@](CF)(OC=O)CC6)C(C)(C)[C@@H]5CC[C@]43C)[C@@H]12 (some centres not stated) | < 50 | > 50
